{"source": "paper PMC8119899", "about": "“A Single Mutation in the Outer Lipid-Facing Helix of a Pentameric Ligand-Gated Ion Channel Affects Channel Function Through a Radially-Propagating Mechanism” (Frontiers in Molecular Biosciences, 2021)", "key": {"[1]": {"target": "T1, 5-HT3A receptor Y441A (Mus musculus, UniProt P23979, Y468A)", "T1 sequence (P23979 24-489 Y468A)": "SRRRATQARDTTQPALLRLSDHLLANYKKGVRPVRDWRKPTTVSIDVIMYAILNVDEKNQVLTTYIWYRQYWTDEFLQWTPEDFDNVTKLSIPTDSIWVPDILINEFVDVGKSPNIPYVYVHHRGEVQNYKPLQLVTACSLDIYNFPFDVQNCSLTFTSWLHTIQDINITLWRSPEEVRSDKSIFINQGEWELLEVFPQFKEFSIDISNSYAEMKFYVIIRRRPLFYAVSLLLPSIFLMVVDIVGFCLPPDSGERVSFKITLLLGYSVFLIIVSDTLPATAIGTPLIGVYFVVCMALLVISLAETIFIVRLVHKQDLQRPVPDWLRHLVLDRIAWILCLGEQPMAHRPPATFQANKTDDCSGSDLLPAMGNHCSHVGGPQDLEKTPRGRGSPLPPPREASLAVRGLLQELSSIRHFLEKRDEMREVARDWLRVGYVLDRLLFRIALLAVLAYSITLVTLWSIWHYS", "design": "expressed in transfected cells; method as in Mesoy et al., [2019]", "settings": "HEK293 cells, ref Mesoy et al., [2019]; cited from earlier work"}, "[2]": {"target": "T2, 5-HT3A receptor F242A (Mus musculus, UniProt P23979, F269A)", "T2 construct": "expressed in transfected cells; host or cells: HEK293", "T2 sequence (P23979 24-489 F269A)": "T1 sequence (P23979 24-489 Y468A) with F246A, A445Y", "test": "FlexStation membrane potential dye, 5-HT response, F242A receptor in HEK293 cells", "assay_type": "cell-based", "settings": "mean and SEM, n ≥ 3", "method": "(§1) The mouse 5-HT3A cDNA (Q6J1J7) in pcDNA3.1 (for HEK cell transfection) or pGEMHE (for RNA production) was modified by QuikChange site-directed mutagenesis (Agilent Technologies) to create point mutants (verified by sequencing).\n(§2) Human embryonic kidney (HEK) 293 cells were maintained at 37 °C at 5% CO2 in a humidified atmosphere, in Dulbecco's Modified Eagle's Medium/Nutrient Mix F12 (1:1) (Invitrogen, Paisley, UK) with GlutaMAX^TM and 10% fetal bovine serum (GE Healthcare) (DMEM/FBS) and passaged when confluent.\n(§3) As described previously (Price and Lummis, [2005]) cells were incubated for 45 min with fluorescent membrane potential-sensitive dye (Membrane Potential Blue kit, Molecular Devices) diluted in Flex buffer (10 mM HEPES, 115 mM NaCl, 1 mM KCl, 1 mM CaCl2, 1 mM MgCl2, and 10 mM glucose, pH 7.4), and subsequently assayed at room temperature for 180 s, with readings every 2 s. […] (log of the concentration of ligand), a is the minimum response, b is the maximum response, and nH is the Hill slope."}, "[3]": {"target": "T3, 5-HT3A receptor S297A (Mus musculus, UniProt P23979, S324A)", "T3 construct": "expressed in transfected cells; host or cells: HEK293", "T3 sequence (P23979 24-489 S324A)": "T1 sequence (P23979 24-489 Y468A) with S301A, A445Y", "test": "FlexStation membrane potential dye, 5-HT response, S297A receptor in HEK293 cells", "assay_type": "cell-based", "settings": "mean and SEM, n ≥ 3", "method": "as §1, §2, §3"}}, "note": "Changes are numbered by the printed parent chain.", "data": [{"smiles": "NCCc1c[nH]c2ccc(O)cc12", "note": "[5-HT]", "values": [{"measurement": "response to application of 5-HT", "setting": "[1]", "value": "Neither Y441A nor D238A responded"}, {"measurement": "nH", "setting": "[2]", "value": "3.8 ± 0.8"}, {"measurement": "nH", "setting": "[3]", "value": "3.5 ± 0.8"}]}]}
